# According to patent US20140328809A1, “METHODS OF INDUCING CHONDROGENESIS IN MESENCHYMAL STEM CELLS USING SYNTHETIC TRITERPENOIDS” (TRUSTEES OF DARTMOUTH COLLEGE, priority 2011, published 2014):
# Assays:
# [1] = system: TIMP-2; assay: Quantitative RT-PCR analysis on calvaria: TIMP-2; assay type: cell-based, mouse; conditions: 7 days of culture, normalized to control = 1.00
# Description: (§1) All chemicals were from Sigma-Aldrich. Primers for RT-PCR were from Applied Biosystems. The isolation of calvaria was essentially performed as described previously (Garrett, 2003; Garret et al., 2003). The calvaria were cultured in Biggers, Gwatkins, Judah medium supplemented with 1 mg/mL of bovine serum albumin (Cohn fraction V), 100 U/mL each of penicillin/streptomycin, and 0.292 mg/mL of glutaimine. On Day 1, the calvaria were treated with CDDO-Im or CDDO-EA. On Day 4, the medium was replaced with fresh medium, again containing either CDDO-Im or CDDO-EA. On Day 7, the calvaria were collected and either stored at −80° C. for further RNA analysis or fixed in 10% buffered formalin for 24 h and transferred to 80% ethanol for histological analysis.
# (§2) After 7 days of culture, RNA was isolated from the calvaria and quantitative RT-PCR analysis was performed for more than 15 different markers including: SOX9 (a transcription factor specific for cartilage), collagen type II (alpha 1), all three isoforms of TGF-β, BMPs 2 and 4, BMP receptor II, Smads 3, 4, 6, and 7, tissue inhibitors of metalloproteinases (TIMP-1 and TIMP-2), and matrix metalloproteinase-9 (MMP-9). […] Both triterpenoids are strong inhibitors of the expression of MMP-9; CDDO-EA (200 nM), caused almost 80% inhibition of the expression of this metalloproteinase, which is known to be involved in the degradation of cartilage (Shinoda et al., 2008).
# [2] = system: Smad7; assay: Quantitative RT-PCR analysis on calvaria: Smad7; assay type: cell-based, mouse; conditions: 7 days of culture, normalized to control = 1.00
# Description: as §1, §2
# [3] = system: BMP-2; assay: Quantitative RT-PCR analysis on calvaria: BMP-2; assay type: cell-based, mouse; conditions: 7 days of culture, normalized to control = 1.00
# Description: as §1, §2
# [4] = system: Col II alpha1; assay: Quantitative RT-PCR analysis on calvaria: Col II alpha1; assay type: cell-based, mouse; conditions: 7 days of culture, normalized to control = 1.00
# Description: as §1, §2
# [5] = system: BMPRII; assay: Quantitative RT-PCR analysis on calvaria: BMPRII; assay type: cell-based, mouse; conditions: 7 days of culture, normalized to control = 1.00
# Description: as §1, §2
# [6] = system: MMP-9; assay: Quantitative RT-PCR analysis on calvaria: MMP-9; assay type: cell-based, mouse; conditions: for MMP-9 expression (quantitative RT-PCR): 7 days of culture, normalized to control = 1.00
# Description: as §1, §2
# [7] = system: SOX9; assay: Western blot of chondrocyte marker SOX9 in bone marrow-derived MSCs; assay type: cell-based, human; conditions: 100 nM for 7 days; MSCs in chondrogenic culture medium; not detectable in control
# Description: (§3) Human bone marrow-derived stromal cells (ScienCell Research Laboratories), which contain a population of responsive mesenchymal stem cells, were grown in mesenchymal stem cell medium (ScienCell Research Laboratories). MSCs were serum-starved 24 hours prior to all experimental conditions. The synthesis of the synthetic triterpenoids, CDDO-Im and CDDO-EA, have been previously described (Sporn et al., 2011).
# (§4) For directed chondrocytic differentiation, MSCs were grown in StemPro chondrogenic culture medium (Invitrogen) prepared by the technique of Kassem (2004), which is incorporated herein by reference. See also Medici et al. (2010), which is also incorporated herein by reference. CDDO-Im and CDDO-EA were added to the cultures at a concentration of 100 nM for 7 days. Western blot analysis was performed using the following antibodies at concentrations (and using protocols) recommended by the respective manufacturers: SOX9, COL2A1 (Santa Cruz Biotechnology), Aggrecan (Abcam), β-actin (Sigma-Aldrich). β-actin was used as a loading control. HRP-conjugated IgG TrueBlot reagents (eBioscience) were used at a dilution of 1:1000.
# [8] = system: Aggrecan; assay: Western blot of chondrocyte marker Aggrecan in bone marrow-derived MSCs; assay type: cell-based, human; conditions: 100 nM for 7 days; MSCs in chondrogenic culture medium; not detectable in control
# Description: as §3, §4
# [9] = system: collagen type II (COL2A1); assay: Immunohistochemical analysis of collagen type II in calvaria; assay type: cell-based, mouse; conditions: 200 nM, FIG. 1b
# Description: as §1
# (§5) After fixation for 24 h, the calvaria were decalcified in EDTA, embedded in paraffin, and cut into 4 μm sections. The sections were stained either with modified hematoxylin and eosin or with toluidine blue (1% in 70% ethanol for 20 min, followed by destaining in 70%, 90%, and 100% ethanol for 15 seconds), placed in xylene twice, and then mounted (Garret, 2003). Procedures for immunofluroescence were performed essentially as previously described (Medici et al., 2010). […]
# [10] = system: TGF-β3; assay: Quantitative RT-PCR analysis on calvaria: TGF-β3; assay type: cell-based, mouse; conditions: 7 days of culture, normalized to control = 1.00
# Description: as §1, §2
# [11] = system: TIMP-1; assay: Quantitative RT-PCR analysis on calvaria: TIMP-1; assay type: cell-based, mouse; conditions: 7 days of culture, normalized to control = 1.00
# Description: as §1, §2
# [12] = system: Smad4; assay: Quantitative RT-PCR analysis on calvaria: Smad4; assay type: cell-based, mouse; conditions: 7 days of culture, normalized to control = 1.00
# Description: as §1, §2
# [13] = system: SOX-9; assay: Quantitative RT-PCR analysis on calvaria: SOX-9; assay type: cell-based, mouse; conditions: 7 days of culture, normalized to control = 1.00
# Description: as §1, §2
# [14] = system: newborn mouse calvaria; assay: Histological analysis (toluidine blue) of chondrogenesis in newborn mouse calvarial organ cultures; assay type: cell-based; conditions: 200 nM, 7 days, FIG. 1a, at least 3 sets of replicate experiments
# Description: as §1, §5
# [15] = system: Smad3; assay: Quantitative RT-PCR analysis on calvaria: Smad3; assay type: cell-based, mouse; conditions: 7 days of culture, normalized to control = 1.00
# Description: as §1, §2
# [16] = system: Smad6; assay: Quantitative RT-PCR analysis on calvaria: Smad6; assay type: cell-based, mouse; conditions: 7 days of culture, normalized to control = 1.00
# Description: as §1, §2
# [17] = system: TGF-β1; assay: Quantitative RT-PCR analysis on calvaria: TGF-β1; assay type: cell-based, mouse; conditions: 7 days of culture, normalized to control = 1.00
# Description: as §1, §2
# [18] = system: TGF-β2; assay: Quantitative RT-PCR analysis on calvaria: TGF-β2; assay type: cell-based, mouse; conditions: 7 days of culture, normalized to control = 1.00
# Description: as §1, §2
# [19] = system: BMP-4; assay: Quantitative RT-PCR analysis on calvaria: BMP-4; assay type: cell-based, mouse; conditions: 7 days of culture, normalized to control = 1.00
# Description: as §1, §2
# [20] = system: COL2A1; assay: Western blot of chondrocyte marker COL2A1 in bone marrow-derived MSCs; assay type: cell-based, human; conditions: 100 nM for 7 days; MSCs in chondrogenic culture medium; not detectable in control
# Description: as §3, §4
smiles,measurement,setting,value
"CCNC(=O)[C@]12CCC(C)(C)C[C@H]1[C@H]1C(=O)C=C3[C@@]4(C)C=C(C#N)C(=O)C(C)(C)[C@@H]4CC[C@@]3(C)[C@]1(C)CC2 [CDDO-EA, CDDO-Ethyl amide]",TIMP-2 expression (quantitative RT-PCR),[1]; 50 nM,1.78 ± 0.18
same,TIMP-2 expression (quantitative RT-PCR),[1]; 200 nM,2.44 ± 0.31
same,TIMP-2 expression (quantitative RT-PCR),[1]; 500 nM,4.09 ± 0.36
same,Smad7 expression (quantitative RT-PCR),[2]; 50 nM,1.28 ± 0.10
same,Smad7 expression (quantitative RT-PCR),[2]; 200 nM,1.86 ± 0.19
same,Smad7 expression (quantitative RT-PCR),[2]; 500 nM,3.06 ± 0.28
same,BMP-2 expression (quantitative RT-PCR),[3]; 50 nM,1.53 ± 0.20
same,BMP-2 expression (quantitative RT-PCR),[3]; 200 nM,2.52 ± 0.29
same,BMP-2 expression (quantitative RT-PCR),[3]; 500 nM,5.66 ± 0.67
same,Col II alpha1 expression (quantitative RT-PCR),[4]; 50 nM,4.12 ± 1.78
same,Col II alpha1 expression (quantitative RT-PCR),[4]; 200 nM,5.45 ± 1.13
same,Col II alpha1 expression (quantitative RT-PCR),[4]; 500 nM,3.18 ± 0.71
same,BMPRII expression (quantitative RT-PCR),[5]; 50 nM,1.50 ± 0.14
same,BMPRII expression (quantitative RT-PCR),[5]; 200 nM,1.71 ± 0.19
same,BMPRII expression (quantitative RT-PCR),[5]; 500 nM,2.24 ± 0.22
same,MMP-9 expression (quantitative RT-PCR),[6]; 50 nM,0.49 ± 0.09
same,MMP-9 expression (quantitative RT-PCR),[6]; 200 nM,0.22 ± 0.03
same,inhibition of the expression of MMP-9,"[6]; 200 nM, RT-PCR",~80%
same,MMP-9 expression (quantitative RT-PCR),[6]; 500 nM,0.19 ± 0.06
same,induction of SOX9 (Western blot),[7],clear induction
same,induction of Aggrecan (Western blot),[8],clear induction
same,"formation of collagen type II (COL2A1), red fluorescence",[9],induce the formation of collagen type II
same,TGF-β3 expression (quantitative RT-PCR),[10]; 50 nM,1.39 ± 0.07
same,TGF-β3 expression (quantitative RT-PCR),[10]; 200 nM,1.56 ± 0.13
same,TGF-β3 expression (quantitative RT-PCR),[10]; 500 nM,1.44 ± 0.11
same,TIMP-1 expression (quantitative RT-PCR),[11]; 50 nM,1.88 ± 0.34
same,TIMP-1 expression (quantitative RT-PCR),[11]; 200 nM,2.85 ± 0.38
same,TIMP-1 expression (quantitative RT-PCR),[11]; 500 nM,4.65 ± 0.38
same,Smad4 expression (quantitative RT-PCR),[12]; 50 nM,1.06 ± 0.03
same,Smad4 expression (quantitative RT-PCR),[12]; 200 nM,1.37 ± 0.12
same,Smad4 expression (quantitative RT-PCR),[12]; 500 nM,1.89 ± 0.12
same,SOX-9 expression (quantitative RT-PCR),[13]; 50 nM,1.64 ± 0.17
same,SOX-9 expression (quantitative RT-PCR),[13]; 200 nM,2.62 ± 0.33
same,SOX-9 expression (quantitative RT-PCR),[13]; 500 nM,3.12 ± 0.38
same,"induction of chondrogenesis (metachromatic toluidine blue purple staining, proteoglycans)",[14],marked ability to induce chondrogenesis
same,Smad3 expression (quantitative RT-PCR),[15]; 50 nM,1.14 ± 0.12
same,Smad3 expression (quantitative RT-PCR),[15]; 200 nM,1.35 ± 0.07
same,Smad3 expression (quantitative RT-PCR),[15]; 500 nM,1.93 ± 0.16
same,Smad6 expression (quantitative RT-PCR),[16]; 50 nM,1.09 ± 0.04
same,Smad6 expression (quantitative RT-PCR),[16]; 200 nM,1.77 ± 0.24
same,Smad6 expression (quantitative RT-PCR),[16]; 500 nM,2.85 ± 0.31
same,TGF-β1 expression (quantitative RT-PCR),[17]; 50 nM,1.17 ± 0.09
same,TGF-β1 expression (quantitative RT-PCR),[17]; 200 nM,1.47 ± 0.24
same,TGF-β1 expression (quantitative RT-PCR),[17]; 500 nM,1.74 ± 0.17
same,TGF-β2 expression (quantitative RT-PCR),[18]; 50 nM,1.36 ± 0.13
same,TGF-β2 expression (quantitative RT-PCR),[18]; 200 nM,1.61 ± 0.11
same,TGF-β2 expression (quantitative RT-PCR),[18]; 500 nM,1.88 ± 0.09
same,BMP-4 expression (quantitative RT-PCR),[19]; 50 nM,1.28 ± 0.12
same,BMP-4 expression (quantitative RT-PCR),[19]; 200 nM,1.47 ± 0.13
same,BMP-4 expression (quantitative RT-PCR),[19]; 500 nM,2.49 ± 0.35
same,induction of COL2A1 (Western blot),[20],clear induction
